Reference: patent US6689783B2, “Aryl oxime-piperazines useful as CCR5 antagonists” (priority 2001, dated 2004)
Counter-ions that a name gives are not always drawn.

Tests used:
[1] = test system: U87 cells stably expressing CD4 and the chemokine receptor CCR5; assay: HIV-1 entry assay (luciferase reporter virions); format: cell-based; conditions: Human immunodeficiency virus 1, U87/CD4/CCR5, read-out: Viral Entry IC50
Procedure: Several types of assays can be used to determine the CCR5 inhibitory and antagonistic activity of the compounds of the invention. Some are, for example, the CCR5 Membrane Binding Assay, the HIV-1 Entry Assay, HIV-1 Replication Assay, the Calcium Flux Assay, the GTPγS Binding Assay (secondary membrane binding assay) and the Chemotaxis Assay. Compounds of this invention were evaluated for their ability to inhibit CCR5 receptor mediated viral entry using an HIV-1 entry assay, which is described below:
Replication defective HIV-1 reporter virions are generated by cotransfection of a plasmid encoding the NL4-3 strain of HIV-1 (which has been modified by mutation of the envelope gene and introduction of a luciferase reporter plasmid) along with a plasmid encoding one of several HIV-1 envelope genes as described by Connor et al, Virology, 206 (1995), 935-944. Following transfection of the two plasmids by calcium phosphate precipitation, the viral supernatants are harvested on day 3 and a functional viral titer determined. These stocks are then used to infect U87 cells stably expressing CD4 and the chemokine receptor CCR5 which have been preincubated with or without test compound. Infections are carried out for 2 hours at 37° C., the cells washed and media replaced with fresh media containing compound. The cells are incubated for 3 days, lysed and luciferase activity determined. […]

CCON=C(c1ccc(OC(F)(F)F)cc1)N1CCN(C2(C)CCN(C(=O)c3c(C)ncnc3C)CC2)C[C@@H]1C (as salt: HCl)
melting point: 165 to 169 °C

CCON=C(c1ccc(C(F)(F)F)cc1)N1CCN(C2(C)CCN(C(=O)c3c(C)ncnc3C)CC2)C[C@@H]1C [Ih, 1-[(4,6-dimethyl-5-pyrimidinyl)carbonyl]-4-[4-[(ethoxyimino)[4-(trifluoromethyl)phenyl]methyl]-3(s)-methyl-1-piperazinyl]-4-methylpiperidine]
IC50 [1]: 16.5 nM
